The target in the assay is aldose reductase (AR) (Capra hircus, UniProt A0A452EAQ3). The assay is described as follows: NADPH oxidation at […] nm with xylose as substrate. To be noted: read-out: % inhibition at 4.5 μg/ml. Format: cell-based.

Molecules are shown by their SMILES.

For `O=c1c(O)c(-c2ccc(O)c(O)c2)oc2cc(O)cc(O)c12` [quercetin], the inhibition at 4.5 µg/mL was determined as 64.6%.

These data come from PMC5314825 (Journal of Pharmacy & Bioallied Sciences, 2016).
